From patent US8889878B2, “Haloalky-substituted amides as insecticides and acaricides” (Bayer CropScience AG, priority 2009, dated 2014)

What was measured:
Lucilia cuprina larvae [1] = assay: Lucilia cuprina test (LUCICU), Example 3; type: in vivo; conditions: application rate 20 ppm, treated horsemeat, after 2 days
Description: (§1) Lucilia cuprina Test (LUCICU) • Solvent: dimethyl sulphoxide To prepare an active ingredient formulation, 10 mg of active ingredient are mixed with 0.5 ml of dimethyl sulphoxide, and the concentrate is diluted with water to the desired concentration. Vessels containing horsemeat which has been treated with the active ingredient formulation of the desired concentration are populated with Lucilia cuprina larvae. After 2 days, the kill rate in % is determined. 100% means that all larvae were killed; 0% means that no larvae were killed.

[2] = logP by HPLC on reverse-phase column (EEC Directive 79/831 Annex V.A8); type: physicochemical; conditions: HPLC-MS
Description: The logP values reported in the above Tables and Preparation Examples were determined according to EEC Directive 79/831 Annex V.A8 by HPLC (High Performance Liquid Chromatography) on a reverse-phase column (C18). Temperature 43° C.

Ctenocephalides felis = Ctenocephalides felis oral (CTECFE), Example 2; type: in vivo; conditions: application rate 20 ppm in citrated cow's blood, after 2 days
Description: Ctenocephalides felis Oral ([…]) • Solvent: 1 part by weight of dimethyl sulphoxide For the purpose of preparing an active ingredient formulation, 10 mg of active ingredient are mixed with 0.5 ml of dimethyl sulphoxide. A portion of the concentrate was diluted with citrated cow's blood and the desired concentration was prepared. 20 unfed adult fleas (Ctenocephalides felis) are placed into a chamber sealed at the top and bottom with gauze. A metal cylinder with its lower end sealed with Parafilm is placed onto the chamber. The cylinder contains the blood-active ingredient preparation, which can be consumed by the fleas through the Parafilm membrane. After 2 days, the kill rate in % is determined. 100% means that all fleas were killed; 0% means that no fleas were killed.

Boophilus microplus [3] = assay: Boophilus microplus test (BOOPMI injection), Example 11; type: in vivo; conditions: application rate 20 μg/animal, injected into abdomen, after 7 days
In short: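 Adult ticks injected in the abdomen with compound diluted in DMSO, then held in a climate-controlled room. Efficacy in % determined after 7 days from fertile eggs laid; 100% means no tick laid fertile eggs.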

Boophilus microplus [4] = assay: Boophilus microplus test (BOOPMI injection), Example 1; type: in vivo; conditions: application rate 20 μg/animal, injected into abdomen, after 7 days
Description: Boophilus microplus Test (BOOPMI Injection) • Solvent: dimethyl sulphoxide To prepare an active ingredient formulation, 10 mg of active ingredient are mixed with 0.5 ml of solvent and the concentrate is diluted with water to the desired concentration. The active ingredient solution was injected into the abdomen (Boophilus microplus), and the animals were transferred to dishes and stored in a climate-controlled room. The efficacy was assessed by the number of fertile eggs laid. After 7 days, the efficacy in % is determined. 100% means that no tick laid fertile eggs.

Lucilia cuprina larvae [5] = assay: Lucilia cuprina test (LUCICU), Example 13; type: in vivo; conditions: application rate 100 ppm, treated horsemeat, after 2 days
Description: as §1, with “prepare an appropriate active ingredient” for “prepare an active ingredient”, “populated with about 20 Lucilia cuprina” for “populated with Lucilia cuprina”

[6] = test system: armyworm (Spodoptera frugiperda); assay: Spodoptera frugiperda test (SPODFR spray treatment), Example 15; type: in vivo; conditions: maize leaf discs sprayed, after 7 days
In short: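 Maize leaf discs sprayed with active ingredient in acetone/DMF with alkylaryl polyglycol ether emulsifier, diluted in water, then populated with caterpillars after drying. Efficacy in % after 7 days: 100% all caterpillars killed, 0% none.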

[7] = test system: mustard beetle (Phaedon cochleariae); assay: Phaedon test (PHAECO spray treatment), Example 7; type: in vivo; conditions: application rate 20 g/ha, china cabbage leaf discs sprayed, after 7 days
In short: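 Spray formulation (acetone/DMF with alkylaryl polyglycol ether, diluted in emulsifier-containing water) applied to Chinese cabbage leaf discs, which were dried and then stocked with mustard beetle larvae. Efficacy scored at 7 days as % larvae killed (100% all, 0% none).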

Musca domestica adults = assay: Musca domestica test (MUSCDO), Example 14; type: in vivo; conditions: application rate 100 ppm, treated sponge, after 2 days
Description: Musca domestica Test (MUSCDO) • Solvent: dimethyl sulphoxide To prepare an appropriate active ingredient formulation, 10 mg of active ingredient are mixed with 0.5 ml of dimethyl sulphoxide, and the concentrate is diluted with water to the desired concentration. Vessels containing a sponge which has been treated with the active ingredient formulation of the desired concentration are populated with Musca domestica adults. After 2 days, the kill rate in % is determined. 100% means that all flies were killed; 0% means that no flies were killed.

[8] = test system: red spider mite (Tetranychus urticae); assay: Tetranychus test, OP-resistant (TETRUR spray treatment), Example 8; type: in vivo; conditions: application rate 20 g/ha, common bean leaf discs sprayed, after 6 days
Description: Tetranychus Test, OP-resistant (TETRUR Spray Treatment)
• Solvent: 78.0 parts by weight of acetone • 1.5 parts by weight of dimethylformamide • Emulsifier: 0.5 part by weight of alkylaryl polyglycol ether
To prepare an active ingredient formulation, 1 part by weight of active ingredient is mixed with the stated amounts of solvent and emulsifier, and the concentrate is diluted with emulsifier-containing water to the desired concentration.
Leaf discs from the common bean (Phaseolus vulgaris) infested by all stages of the red spider mite (Tetranychus urticae) are sprayed with an active ingredient formulation of the desired concentration.
After 6 days, the efficacy in % is determined. 100% means that all spider mites were killed; 0% means that no spider mites were killed.

[9] = test system: green peach aphid (Myzus persicae); assay: Myzus test (MYZUPE spray treatment), Example 17; type: in vivo; conditions: china cabbage leaf discs sprayed, after 6 days
In short: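 Chinese cabbage leaf discs infested with all aphid stages were sprayed with compound formulated in acetone/dimethylformamide plus alkylaryl polyglycol ether emulsifier, diluted in emulsifier-containing water. Mortality read after 6 days as % efficacy (100% all killed, 0% none killed).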

| Structure (SMILES) | kill rate in % (efficacy) (Lucilia cuprina larvae [1]) | logP [2] | kill rate in % (efficacy) (Ctenocephalides felis) | efficacy in % (fertile eggs laid) (Boophilus microplus [3]) | efficacy in % (fertile eggs laid) (Boophilus microplus [4]) | kill rate in % (efficacy) (Lucilia cuprina larvae [5]) | efficacy in % ([6]; application rate 500 g/ha) | efficacy in % [7] | kill rate in % (efficacy) (Musca domestica adults) | efficacy in % [8] | efficacy in % ([9]; application rate 500 g/ha) | efficacy in % ([6]; application rate 100 g/ha) | efficacy in % ([9]; application rate 100 g/ha) |
| --- | --- | --- | --- | --- | --- | --- | --- | --- | --- | --- | --- | --- | --- |
| O=C(/C=C/c1ccc(C(=O)NC2CC2)c(C(F)(F)F)c1)NC(c1cc(Cl)cc(Cl)c1)C(F)(F)F (stereo not shown) [Ia-24] | 80% | HPLC-MS: logP = 3.5; mass | 100% | 100% | 100% |  |  |  |  |  |  |  |  |
| CC(NC(=O)c1ccc(/C=C/C(=O)NC(c2c(F)cccc2F)C(F)(F)F)cc1C(F)(F)F)C(F)(F)F (stereo not shown) [Ia-29] |  | HPLC-MS: logP = 3.41; mass |  | 100% | 100% | 80% |  |  |  |  |  |  |  |
| O=C(/C=C/c1ccc(C(=O)NCc2ccccc2)c(C(F)(F)F)c1)NC(c1cccc(C(F)(F)F)c1)C(F)(F)F (stereo not shown) [Ia-31] |  | HPLC-MS: logP = 3.68; mass | 95% | 100% | 100% | 90% |  |  |  |  |  |  |  |
| O=C(/C=C/c1ccc(C(=O)NCc2ccccn2)c(C(F)(F)F)c1)NC(c1ccc(Cl)c(Cl)c1)C(F)(F)F (stereo not shown) [Ia-32] |  | HPLC-MS: logP = 2.98; mass | 100% | 100% | 100% |  | 83% |  |  |  |  |  |  |
| O=C(/C=C/c1ccc(C(=O)NCC(F)F)c(C(F)(F)F)c1)NC(c1cccc(C(F)(F)F)c1)C(F)(F)F (stereo not shown) [Ia-57] |  | HPLC-MS: logP = 3.48; mass |  | 100% |  |  |  | 100% | 100% | 90% | 100% |  |  |
| COCCNC(=O)c1ccc(/C=C/C(=O)NC(c2cccc(C(F)(F)F)c2)C(F)(F)F)cc1C(F)(F)F (stereo not shown) [Ia-58] |  | HPLC-MS: logP = 3.12; mass | 98% | 100% | 100% |  | 83% | 100% |  | 90% | 100% |  |  |
| O=C(/C=C/c1ccc(C(=O)NCc2ccc(F)cn2)c(C(F)(F)F)c1)NC(c1cccc(C(F)(F)F)c1)C(F)(F)F (stereo not shown) [Ia-73] |  | HPLC-MS: logP = 3.31; mass | 95% | 100% | 100% | 80% |  | 100% |  | 100% |  |  |  |
| O=C(/C=C/c1ccc(C(=O)NCc2ccc(Cl)nc2)c(C(F)(F)F)c1)NC(c1cccc(C(F)(F)F)c1)C(F)(F)F (stereo not shown) [Ia-80] |  | HPLC-MS: logP = 3.65; mass | 100% | 100% | 100% | 80% |  | 100% |  |  |  |  |  |
| O=C(/C=C/c1ccc(C(=O)NC2COC2)c(Br)c1)NC(c1cccc(C(F)(F)F)c1)C(F)(F)F (stereo not shown) [Ia-94] |  | HPLC-MS: logP = 2.8 mass |  | 100% |  | 95% |  | 100% |  | 80% |  |  |  |
| CC(NC(=O)c1ccc(/C=C/C(=O)NC(c2cccc(C(F)(F)F)c2)C(F)(F)F)cc1C(F)(F)F)c1ccccn1 (stereo not shown) [Ia-128] |  | HPLC-MS: logP = 3.22; mass |  | 100% |  | 90% |  |  |  |  |  |  |  |
| CC(NC(=O)c1ccc(/C=C/C(=O)NC(c2cccc(C(F)(F)F)c2)C(F)(F)F)cc1Br)c1ccccn1 (stereo not shown) [Ia-134] |  | HPLC-MS: logP = 3.11; mass |  | 100% |  | 90% |  |  |  |  |  |  |  |
| CC(Cn1cccn1)NC(=O)c1ccc(/C=C/C(=O)NC(c2cccc(C(F)(F)F)c2)C(F)(F)F)cc1C(F)(F)F (stereo not shown) [Ia-139] |  | HPLC-MS: logP = 3.42; mass |  | 100% |  | 80% |  |  |  |  |  |  |  |
| N#CC1CC1NC(=O)c1ccc(/C=C/C(=O)NC(c2cccc(C(F)(F)F)c2)C(F)(F)F)cc1C(F)(F)F (stereo not shown) [Ia-140] |  | HPLC-MS: logP = 3.37; mass |  | 100% |  |  |  |  | 100% |  |  | 100% | 90% |
| CC(C#N)NC(=O)c1ccc(/C=C/C(=O)NC(c2cccc(C(F)(F)F)c2)C(F)(F)F)cc1C(F)(F)F (stereo not shown) [Ia-141] |  | HPLC-MS: logP = 3.39; mass |  | 100% |  |  |  |  | 100% |  |  | 100% | 100% |
| NC(=O)c1ccc(/C=C/C(=O)NC(c2cccc(C(F)(F)F)c2)C(F)(F)F)cc1C(F)(F)F (stereo not shown) [Ia-142] |  | HPLC-MS: logP = 2.89; mass |  | 100% |  | 90% |  |  | 90% |  |  |  | 100% |
| CNC(=O)c1ccc(/C=C/C(=O)NC(c2cccc(C(F)(F)F)c2)C(F)(F)F)cc1C(F)(F)F (stereo not shown) [Ia-147] |  | HPLC-MS: logP = 3.09; mass |  | 100% |  | 80% |  |  |  |  |  | 100% |  |
| CC(CC1CC1)NC(=O)c1ccc(/C=C/C(=O)NC(c2cccc(C(F)(F)F)c2)C(F)(F)F)cc1C(F)(F)F (stereo not shown) [Ia-148] |  | HPLC-MS: logP = 4.24; mass |  | 100% |  |  |  |  | 90% |  |  | 100% |  |
| CC(C)ONC(=O)c1ccc(/C=C/C(=O)NC(c2cccc(C(F)(F)F)c2)C(F)(F)F)cc1C(F)(F)F (stereo not shown) [Ia-149] |  | HPLC-MS: logP = 3.48; mass |  | 100% |  |  |  |  | 100% |  |  | 100% |  |
| O=C(/C=C/c1ccc(C(=O)NC2CSC2)c(Cl)c1)NC(c1cccc(C(F)(F)F)c1)C(F)(F)F (stereo not shown) [Ia-152] |  | HPLC-MS: logP = 3.51; mass |  | 100% |  | 90% |  |  |  |  |  |  | 80% |
| CC(NC(=O)c1ccc(/C=C/C(=O)NC(c2cccc(C(F)(F)F)c2)C(F)(F)F)cc1Cl)C(F)(F)F (stereo not shown) [Ia-158] |  | HPLC-MS: logP = 3.78; mass |  | 100% |  |  |  |  | 100% |  |  | 100% | 80% |
| O=C(/C=C/c1ccc(C(=O)NCC2CC2)c(Cl)c1)NC(c1cccc(C(F)(F)F)c1)C(F)(F)F (stereo not shown) [Ia-163] |  | HPLC-MS: logP = 3.54; mass |  | 100% |  |  |  |  | 100% |  |  |  | 100% |
